Experimental data from patent US20240336563A1, “G-ALPHA-S INHIBITORS AND USES THEREOF” (The Regents of the University of California, priority 2021, published 2024).
“Also recorded” adds a separate entry of the source.

Experiments:
[1] = target: Gαs(R201C) (Homo sapiens, UniProt P63092, R201C); test: Cysteine modification by acrylamidine; type: binding; conditions: R201C mutant
Text: (§1) The R201C mutation results in the loss of ammonium η1 and η2 of R201 thus freeing E50 to interact with R258 and R265 to indirectly stabilize switch II in an active-like conformation. Based on this finding, replacing the side chain of R201C with a close mimic of native arginine which contains N(η1) and N(η2) may correct the misactivation of the R201C mutant. […] This modification converts cysteine to an arginine mimic (FIG. 3A).

[2] = target: T1, Gαs(R201C/C237S) (Homo sapiens, UniProt P63092, C237S/R201C); test: Cysteine modification by acrylamidine; type: binding; conditions: R201C/C237S double mutant
T1 sequence (P63092 7-380 isoform P63092-2 R187C/C223S limits assumed): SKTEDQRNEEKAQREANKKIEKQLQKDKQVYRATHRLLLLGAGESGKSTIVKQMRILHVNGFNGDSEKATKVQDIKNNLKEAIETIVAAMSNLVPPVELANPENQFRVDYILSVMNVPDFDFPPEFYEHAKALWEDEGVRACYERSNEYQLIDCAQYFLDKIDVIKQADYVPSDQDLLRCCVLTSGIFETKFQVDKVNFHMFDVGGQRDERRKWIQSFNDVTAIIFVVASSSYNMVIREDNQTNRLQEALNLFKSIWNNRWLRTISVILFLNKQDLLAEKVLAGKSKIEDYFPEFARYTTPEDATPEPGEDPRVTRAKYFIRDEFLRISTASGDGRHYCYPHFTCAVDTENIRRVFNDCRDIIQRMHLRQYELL
Text: as §1

[3] = target: GDP-bound Gαs(R201C/C237S) (Homo sapiens, UniProt P63092, C237S/R201C); test: Adenylyl cyclase-activating activity of Acr-modified Gαs; type: biochemical; conditions: in the presence of GDP and Gβ1/Gγ2(C68S), free Acr removed by gel filtration
GDP-bound Gαs(R201C/C237S), sequence (P63092 7-380 isoform P63092-2 R187C/C223S limits assumed): as above
Procedure: (§2) FIGS. 3A-3C show modification of C201 by acrylamide. […] The data represents the mean SE of three independent measurements. […] The data represents the mean±SD of at least three independent measurements.
(§3) Also effect of modifying C201 with Acr on the adenylyl cyclase-activating activity of GDP-bound Gαs(R201C/C237S) was calculated. […] The kcat of Gαs(C237S) is 1.539±0.153 min^−1 (measured at 0° C.), slightly higher than that of WT Gαs (FIG. 3C). […] Following Acr modification of the R201C/C237S mutant its kcat increased to 0.471±0.043 min^−1 (measured at 0° C.), about 30% of that of Gαs(C237S).

[4] = target: T1, Gαs(R201C/C237S); test: Single turnover GTPase activity of Acr-modified Gαs; type: biochemical
Procedure: as §2, §3

Gαs(R201C), sequence (P63092 7-380 isoform P63092-2 R187C limits assumed): as the sequence (P63092 7-380 isoform P63092-2 R187C/C223S limits assumed) above, with S217C counted along it

- cysteines modified by Acr [1]: can modify Cys237 and Cys201
- cysteines modified by Acr [2]: only Cys201 can be modified
- kcat after Acr modification relative to that of Gαs(C237S) ([4]; measured at 0° C.): about 30%
- kcat of R201C/C237S mutant following Acr modification ([4]; measured at 0° C.): 0.00785 ± 0.000717 s⁻¹
Structure (SMILES): C=CC(=N)N [Acr, acrylamidine]
- ability of Acr-modified Gαs(R201C/C237S) to activate adenylyl cyclase [3]: lowered to the same level as that of Gαs(C237S); also recorded: decreased
- single turnover GTPase activity of the R201C/C237S mutant after modification of C201 by Acr ([4]; FIG. 3C legend): increased the single turnover GTPase activity of the R201C/C237S mutant to a level close to that of the C237S mutant
